According to patent publication US20100216755A1, “ANTI-TUMOR AGENT” (AJINOMOTO CO. INC, priority 2001, published 2010):
Counter-ions that a name gives are not always drawn. Marks after values point to notes of the source that are not given here.

Tests used:
[1] = Maximum tolerable dose in CDF1 mice; format: in vivo; conditions: AC-7700 s.c. 3 times every 3 days, CDF1 mice (female)
[2] = tested on: Malignant fibrous histiocytoma MT-9; assay: Anti-tumor effect, MT-9/F344 system (tumor volume, I.R.); format: in vivo, rat (F344); conditions: for I.R.(%): 3 times every 3 days
Method: • Rat tumor cell line (transplant rat strain); • Malignant fibrous histiocytoma MT-9 (F344, male)
MT-9 was obtained as in-vitro cultured cells, which were cultured in RPMI1640 medium containing 10% FBS. 10^7 or more of the MT-9 cells were subcutaneously transplanted into the back of rats. After tumor formation, tumor slices (about 100 mg) were inoculated subcutaneously into rats using cannula for serial passage.
The MT-9/F344 system: Tumors serially passed by the subcutaneous transplantation were extirpated. After binding tissues and necrosis portions in the tumors had been removed, tumor tissues were minced with scissors and made pasty. About 50-100 mg of the tumor tissues were subcutaneously transplanted into the backs of F344 rats (day 0).
After the tumors were multiplied to a measurable quantity (about 1-2 weeks later), the tumor size (tumor volume) and body weight were measured and divided into tumor size-and body weight-matched groups.
The tumor sizes (tumor volumes) and body weights were measured every day from the next day to about the third day following completion of administration. Incidentally, the tumor volume was calculated according to the following formula:
Tumor volume (mm^3)=[…].
T/C(%)=[(tumor volume for the medicine administered group)÷(tumor volume for the control group)]×100
The influence of Dexamethasone on the pharmaceutical effect of AC-7700 was investigated using F344 rats, subcutaneously transplanted MT-9. AC-7700 was administered at a dosage of 10 mg/kg, and 1 mg/kg of Dexamethasone was administered on the day before the AC-7700 administration. Both the medical agents were 3 times administered every 3 days.

COc1ccc(/C=C\c2cc(OC)c(OC)c(OC)c2)cc1NC(=O)[C@@H](N)CO [AC-7700, (Z)—N-[2-methoxy-5-[2-(3,4,5-trimethoxyphenyl)vinyl]phenyl]-L-serinamide hydrochloride]
maximum tolerable dose of AC-7700 ([1]; with Dexamethasone 5 mg/kg/day i.v. on the day before and the day of AC-7700): more than 90 mg/kg/day
maximum tolerable dose of AC-7700 ([1]; without Dexamethasone): 43.6 mg/kg/day
tumor growth ([2]; AC-7700 10 mg/kg as single agent, F344 rats, s.c. MT-9): significantly inhibited tumor growth
tumor growth ([2]; AC-7700 10 mg/kg in combination with Dexamethasone 1 mg/kg, no significant difference from AC-7700 alone (Scheffe's F test)): inhibited tumor growth in the same manner
I.R.(%) ([2]; AC-7700 10 mg/kg/day alone (DEX 0), F344 rats, s.c. MT-9): 84** %
I.R.(%) ([2]; AC-7700 10 mg/kg/day combined with DEX 1 mg/kg/day given the day before, F344 rats, s.c. MT-9): 72** %
